Experimental findings from patent US11248234B2, “Herbicide-resistant hydroxyphenylpyruvate dioxygenases” (BASF SE, priority 2015, dated 2022) are described below.

Assay [1] concerns transgenic Arabidopsis plants (T2) SoHPPD I419V (short). Briefly: Greenhouse spray test, injury evaluation. Type of assay: in vivo, Arabidopsis thaliana. As to conditions: for Injury: 14 DAT. How it is done: (§1) Non-transgenic control plants were treated in parallel and pictures taken 14 days after treatment.
(§2) For post emergence treatment, the test plants are first grown to a height of 3 to 15 cm, depending on the plant habit, and only then treated with the herbicides. For this purpose, the test plants are either sown directly and grown in the same containers, or they are first grown separately and transplanted into the test containers a few days prior to treatment.
(§3) Additionally, T1 and T2 transgenic Arabidopsis plants can be tested for improved tolerance to HPPD-inhibiting herbicides in greenhouse studies. Herbicide injury scoring is done 2-3 weeks after treatment and is rated on a scale of 0 to 100%, 0% being no injury and 100% being complete death.
(§4) Transgenic T2 Arabidopsis plants were sprayed with a range of doses from 1.56-25 g/ha of different HPPD-inhibiting herbicides and injury evaluations were taken two weeks after treatment (FIG. 4). As depicted in Table 8, control plants were severely injured by all doses of herbicides applied, with at least 58% of leaf material being damaged at the lowest application rate and 100% leaf damage at the second application rate.

Assay [2] relates to transgenic Arabidopsis plants (T2) SoHPPD Q317H (short). Briefly: Greenhouse spray test, injury evaluation. The format is in vivo, Arabidopsis thaliana. As to conditions: for Injury: 14 DAT. As for the experimental part:
as §1, §2, §3, §4

The subject of assay [3] is WT (non-transgenic control) Arabidopsis plants. Briefly: Greenhouse spray test, injury evaluation. The format is in vivo, Arabidopsis thaliana. As to conditions: 14 DAT. How it is done:
as §1, §2, §3, §4

In assay [4] the test system is Arabidopsis overexpression line SoHPPD (SEQ ID NO: 2). Briefly: Germination assay in 48-well plates (tolerance factor). As to conditions: plant growth IC50 transgenic / wildtype; mean of 5 T2 events; non-transgenic set to 1. The format is in vivo, Arabidopsis thaliana. As for the experimental part:
(§5) Tolerance to HPPD-inhibiting herbicides can also be assessed in Arabidopsis. In this case transgenic Arabidopsis thaliana plants are assayed for improved tolerance to HPPD-inhibiting herbicides in 48-well plates (germination assay). Seeds are surface sterilized by stirring for 5 min in ethanol+water (70+30 by volume), rinsing one time with ethanol+water (70+30 by volume) and two times with a sterile, deionized water. The seeds are resuspended in 0.1% agar dissolved in water (w/v). Four to five seeds per well are plated on solid nutrient medium consisting of half-strength Murashige Skoog nutrient solution, pH 5.8 (Murashige and Skoog (1962) Physiologia Plantarum 15: 473-497). Compounds are dissolved in dimethylsulfoxid (DMSO) and added to the medium prior solidification (final DMSO concentration 0.1%). Multi well plates are incubated in a growth chamber at 22° C., 75% relative humidity and 110 μmol Phot*m−2*s−1 with 14:10 h light:dark photoperiod. Growth inhibition is evaluated seven to ten days after seeding in comparison to wild type plants. Tolerance factor is calculated by dividing the plant growth IC50 value of transgenic plants containing a HPPD sequence by that of wildtype plants.

For assay [5], the system named is Arabidopsis overexpression line SoHPPD I455V. The description is as above. Type of assay: in vivo, Arabidopsis thaliana. As to conditions: plant growth IC50 transgenic / wildtype; mean of 5 T2 events; non-transgenic set to 1. How it is done: as §5
Assay [6] concerns transgenic T1 Arabidopsis plants, Scenedesmus HPPD alanine 318 exchanged by glycine and leucine 350 substituted with methionine. Description: T1 spray application. The format is in vivo, Arabidopsis thaliana. As to conditions: FIG. 3; pictures 8 days after treatment. How it is done: (§6) Wildtype plants were sprayed in parallel at each application rate (two lower pots below dashed line) whereas T1 plants are represented by the five upper pots. Pictures were taken 8 days after treatment.
(§7) Transgenic T1 Arabidopsis plants were sprayed with the indicated amount of HPPD inhibiting herbicide. The T1 spray application is a fast method to evaluate the potential of transgenic traits even though a segregating population and only one event of respective traits is tested.

Assay [7] has as its system transgenic T1 Arabidopsis plants, Scenedesmus HPPD phenylalanine 363 exchanged by isoleucine. Description: T1 spray application. The format is in vivo, Arabidopsis thaliana. As to conditions: FIG. 3; highest application rate. As for the experimental part: as §6, §7
Assay [8] deals with Scenedesmus HPPD with glutamine 317 exchanged to methionine, alanine 318 substituted by glycine and glutamate 345 mutated to glutamin. Description: In vitro HPPD activity assay. Type of assay: biochemical, Scenedesmus obliquus. As to conditions: in words, from Table 6 data. How it is done:
HPPD produces homogentisic acid and CO2 from 4-hydroxyphenylpyruvate (4-HPP) and O2. The activity assay for HPPD is based on the analysis of homogentisic acid by reversed phase HPLC.
The assay mixture can contain 150 mM potassium phosphate buffer pH 7.0, 50 mM L-ascorbic acid, 100 μM Catalase (Sigma-Aldrich), 1 μM FeSO4 and 0.2 units of purified mutated HPPD enzyme in a total volume of 505 μl. 1 unit is defined as the amount of enzyme that is required to produce 1 nmol of HGA per minute at 20° C.
After a preincubation of 30 min the reaction is started by adding 4-HPP to a final concentration of 0.05 mM. The reaction is allowed to proceed for 45 min at room temperature. The reaction is stopped by the addition of 50 μl of 4.5 M phosphoric acid. The sample is filtered using a […] pore size PVDF filtration device.
5 μl of the cleared sample is analyzed on an UPLC HSS T3 column (particle size 1.8 μm, dimensions 2.1×50 mm; Waters) by isocratic elution using 90% 20 mM NaH2PO4 pH 2.2, 10% methanol (v/v).
HGA is detected electrochemically at 750 mV (mode: DC; polarity: positive) and quantified by integrating peak areas (Empower software; Waters).
Inhibitors are dissolved in DMSO (dimethylsulfoxide) to a concentration of 0.5 mM. From this stock solution serial five-fold dilutions are prepared in DMSO, which are used in the assay. […] IC50 values are calculated using non-linear regression. […]

`CS(=O)(=O)c1ccc(C(=O)C2C(=O)CCCC2=O)c([N+](=O)[O-])c1` [Inhibitor 2, 2-(4-methylsulfonyl-2-nitro-benzoyl)cyclohexane-1,3-dione] showed an average injury rate in assay [1] (25 g ai/ha, average of events) of 75%. Further, the Injury in assay [1] (Event G, 1.56 g ai/ha) came to 0%; in assay [1] (Event G, 6.25 g ai/ha), 0%; in assay [1] (Event G, 25 g ai/ha), 95%; in assay [1] (Event H, 1.56 g ai/ha), 5%; in assay [1] (Event H, 6.25 g ai/ha) it was 8%; in assay [1] (Event H, 25 g ai/ha), 58%. Moreover, the Injury in assay [2] (Event B, 1.56 g ai/ha) was found to be 0%; in assay [2] (Event B, 6.25 g ai/ha) it was 0%; in assay [2] (Event B, 25 g ai/ha) it was 33%; in assay [2] (Event C, 1.56 g ai/ha), 0%; in assay [2] (Event C, 6.25 g ai/ha) it was 3%; in assay [2] (Event C, 25 g ai/ha) it was 35%. For the same molecule, the values for the Injury in assay [3] (1.56 g ai/ha), in assay [3] (6.25 g ai/ha) and in assay [3] (25 g ai/ha) were 58%, 100% and 100%, respectively. Also, the “average damage (leaf injury)” value in assay [2] (25 g ai/ha, average of events) stood at 34%.
`Cc1c(C(=O)c2cnn(C)c2O)ccc(S(C)(=O)=O)c1C1=NOCC1` [Inhibitor 1, [3-(4,5-dihydroisoxazol-3-yl)-2-methyl-4-methylsulfonyl-phenyl]-(5-hydroxy-1-methyl-pyrazol-4-yl)methanone]: the results for the Tolerance factor in assay [4] and in assay [5] were 92 and 7, respectively. Moreover, the entries for the “tolerance of T1 plants to spray” value in assay [6] and in assay [7] were “good tolerance” and “highly tolerant”, respectively. In addition, the Injury stood at 5% in assay [1] (Event G, 1.56 g ai/ha); 8% in assay [1] (Event G, 6.25 g ai/ha); 13% in assay [1] (Event G, 25 g ai/ha); 0% in assay [1] (Event H, 1.56 g ai/ha); 0% in assay [1] (Event H, 6.25 g ai/ha); 13% in assay [1] (Event H, 25 g ai/ha). In addition, the Injury was 0% in assay [2] (Event B, 1.56 g ai/ha); 0% in assay [2] (Event B, 6.25 g ai/ha); 18% in assay [2] (Event B, 25 g ai/ha); 0% in assay [2] (Event C, 1.56 g ai/ha); 0% in assay [2] (Event C, 6.25 g ai/ha); 10% in assay [2] (Event C, 25 g ai/ha). The values for the Injury in assay [3] (1.56 g ai/ha), in assay [3] (6.25 g ai/ha) and in assay [3] (25 g ai/ha) were 75%, 100% and 100%, respectively.
For `CCS(=O)(=O)c1cc(C(F)(F)F)ccc1C1=C(O)c2ncccc2C(C)(C)S1(=O)=O` [Inhibitor 4, 7-[2-ethylsulfonyl-4-(trifluoromethyl)phenyl]-5,5-dimethyl-6,6-dioxo-thiopyrano[4,3-b]pyridin-8-ol], in assay [8], the “resistance of the enzyme to the inhibitor” value is reported as “conferred resistance”.
